Entries after “also recorded” stand apart in the source; their conditions may differ. Like-named read-outs stand apart in the source and are kept apart here.
Columns and labels:
muscarinic receptor = experiment: Carbachol co-treatment in compound induced OPC differentiation (MBP staining); format: cell-based, rat; conditions: compounds at EC90 (benztropine 2.3 uM), serial dilutions of carbachol, 6 days
Procedure: Following 6 days of treatment, cells were fixed and stained for MBP. Plates were imaged using the OPERA high content screening system and MBP staining was quantified as described. […] OPCs were plated in 384-well plates at 5000 cells per well in media containing basal PDGF-αα. Cells were equilibrated with Ca^2+ sensitive Fluo-3AM® dye in HBSS for 30 min. […] Ca^2+ influx was immediately measured using the FLIPR TETRA® system.
OPCs express mAChRs, predominantly subtypes M1, M3, and M5 (F. Ragheb et al., J Neurochem, 77, 1396 (2001)). […] Activation of M1 and M3 mAChRs is coupled to downstream signal transduction events through phospholipase C, which results in increased intracellular calcium concentrations (F. Ragheb et al., J Neurochem, 77, 1396 (2001)) (FIG. 23C). M2 and M4 mAChR activation inhibits adenylatecyclase, leading to decreased intracellular cAMP levels (C. C. Felder, FASEB J, 9, 619 (1995); M. Lopez-Ilasaca et al., Science, 275, 394 (1997)). […] Acetylcholine is a known regulator of OPC proliferation and, as such, muscarinic receptor subtypes represent a reasonable class of therapeutic targets for the modulation of OPC proliferation and differentiation (F. De Angelis et al., Dev Neurobiol, (2011)).

PLP induced EAE mice = conditions: for clinical severity versus vehicle, prophylactic mode: 10 mg/kg i.p. daily from the day of PLP injection; for dose dependence of clinical EAE scores: various doses i.p. (FTY720 1, 0.1, 0.01 mg/kg; interferon-β 10,000, 3000, 1000 U per mouse)
Procedure: (A-E) SJL mice were immunized with proteolipid peptide (PLP) and pertussis toxin and monitored daily with scoring on the standard clinical EAE scale (0-5). Compounds were administered daily for the duration of the study in saline at 10 mg/kg via intra-peritoneal injection (0.1 ml), starting on the day of the appearance of clinical EAE symptoms (day 10). […] Mean clinical EAE score and standard error of mean (SEM) are shown for each study group.
FIG. 25. […] EAE was induced in mice using PLP and pertussis toxin. […] Prophylactic dosing is defined as administration of compound commenced on the day of PLP injection. Error bars indicate standard deviation of the mean within each group of 8 mice.
(A-F) EAE was induced in mice using PLP and pertussis toxin. […] Error bars indicate standard deviation of the mean within each group of 8 mice.
(A-F) EAE was induced in mice by injecting PLP in complete Freund's adjuvant (CFA) and pertussis toxin, and the animals were scored daily for clinical severity of disease on a scale of 0-5. […] Error bars indicate standard deviation of the mean within each group of 8-10 mice.
10 week old SJL mice were immunized with PLP emulsion and pertusis toxin to induce EAE. […] Compounds were administered daily via intraperitoneal injection of 100 ul in sterile saline at 10 mg/kg alone or in combination with mycophenolate motefil in sterile saline at pH 5 at 20 mg/kg. Compound administration was initiated at disease onset (day 10) while mycophenolate motefil administration was initiated on Day 14. The mice were scored daily on a standard EAE scale of 0-5.
This model is most commonly used to evaluate the potential efficacy of immunomodulatory agents, but can also be used to determine the effectiveness of promyelinating agents that function by enhancing OPC differentiation (M. Fernandez et al., Proc Natl Acad Sci U.S.A, 101, 16363 (2004); X. Lee et al., J Neurosci, 27, 220 (2007); reviewed in R. J. Franklin, C. Ffrench-Constant, Nat Rev Neurosci, 9, 839 (2008)). […] We next evaluated efficacy when the drug is dosed therapeutically, by starting daily injections at the first sign of disease onset.
For the treatment of MS, an OPC differentiation inducing drug would most likely be introduced clinically as part of a combination therapy with an immunosuppressive drug. […] The former reduces T-cell proliferation and alters cytokine expression (A. Noronha, A. Toscas, M. A. Jensen, J Neuroimmunol, 46, 145 (1993); A. Noronha, A. Toscas, M. A. Jensen, Ann Neurol, 27, 207 (1990)), while the latter is an S1P agonist that regulates T-cell trafficking (V. Brinkmann et al., J Biol Chem, 277, 21453 (2002); V. Brinkmann et al., Nat Rev Drug Discov, 9, 883 (2010)).

OPCs = experiment: Immunofluorescence analysis of mature oligodendrocyte markers (MBP, MOG, CNP, GalC, O1, O4); format: cell-based, rat; conditions: OPCs treated 6 days
Description: FIG. 3. Immunofluorescence analysis of compound treated OPCs using mature oligodendrocyte specific markers. Immunofluorescence staining using specific antibodies for MBP, MOG, and 2′,3′-cyclic nucleotide 3′ phosphodiesterase (CNP). Nuclei were identified using DAPI.
FIG. 4. Immunofluorescence analysis of compound treated OPCs using mature oligodendrocyte specific markers. Immunofluorescence staining using specific antibodies for galactocereberoside (GalC), oligodendrocyte marker O1 (O1) and oligodendrocyte marker O4 (O4). Nuclei were identified using DAPI.
FIG. 14. Compound treatment induces the differentiation of OPCs to mature oligodendrocytes. […] Cells were fixed and immunostained for MBP, MOG, CNP, GalC, O1, or O4.
Immunofluorescence was also used to confirm that the hits were able to induce oligodendrocyte maturation.

| SMILES | effect of carbachol on compound induced OPC differentiation (muscarinic receptor) | effect of carbachol on compound induced OPC differentiation (muscarinic receptor; listed as benzatropine) | effect on clinical severity scores at 0.1 mg/kg (PLP induced EAE mice; 0.1 mg/kg) | clinical severity versus vehicle, prophylactic mode (PLP induced EAE mice) | clinical severity versus vehicle, prophylactic mode (PLP induced EAE mice; listed as Benztropine) | mean maximal clinical EAE score in relapse, day 25 (PLP induced EAE mice; SJL mice, scale 0-5, compounds 10 mg/kg i.p. daily from day 10, mycophenolate mofetil 20 mg/kg from day 14, mean ± SEM) | most effective dose in decreasing clinical severity scores (PLP induced EAE mice; dose response in EAE model) | general toxicity (PLP induced EAE mice; mouse, in vivo, 10 mg/kg) | dose dependence of clinical EAE scores (PLP induced EAE mice) | dose dependence of clinical EAE scores (PLP induced EAE mice; listed as Benztropine) | markers of mature myelinating oligodendrocytes (MBP, MOG, CNP, GalC, O1, O4) by immunofluorescence (OPCs) | recovery time following the acute phase (PLP induced EAE mice; 10 mg/kg i.p. daily from day 10) | mean maximal clinical EAE score in relapse, day 26 (PLP induced EAE mice; SJL mice, scale 0-5, 10 mg/kg i.p. daily from day 10, mean ± SEM) |
| --- | --- | --- | --- | --- | --- | --- | --- | --- | --- | --- | --- | --- | --- |
| CN1[C@@H]2CC[C@H]1C[C@@H](OC(c1ccccc1)c1ccccc1)C2 [benztropine] | inhibited; also recorded: Potent inhibition; also recorded: antagonizes | dose dependent inhibition | no effect | significantly decreased clinical severity in both acute and relapse phase | dramatically decreased the severity of the acute phase of disease and virtually eliminated the observation of a relapse phase; also recorded: decreased the clinical severity of disease | 0.2±0.2 | 12.5 mg/kg | general toxicity was not observed | Dose dependent activity | dose dependent efficacy | confirmed the presence of multiple markers of mature myelinating oligodendrocytes; also recorded: expression of mature oligodendrocyte markers | – | – |
| CN1CCN(CCCN2c3ccccc3Sc3ccc(C(F)(F)F)cc32)CC1 [trifluoperazine] | did not inhibit; also recorded: no effect | – | – | – | – | – | – | – | – | – | confirmed the presence of multiple markers of mature myelinating oligodendrocytes | modest decrease | 0.4±0.4 |

Source: patent US11246873B2, “Directed differentiation of oligodendrocyte precursor cells to a myelinating cell fate” (The Scripps Research Institute, priority 2011, dated 2022)
